{
  "source": "patent US20200246316A1",
  "about": "“METHODS OF TREATING POST-SURGICAL PAIN WITH A THIAZOLINE ANTI-HYPERALGESIC AGENT” (CERSCI THERAPEUTICS, INC., priority 2019, published 2020)",
  "key": {"OCT": {"target": "T1, OCT (Homo sapiens, UniProt O15245)", "T1 construct": "expressed in transfected cells; host or cells: HEK293 cells", "T1 sequence (O15245 whole entry)": "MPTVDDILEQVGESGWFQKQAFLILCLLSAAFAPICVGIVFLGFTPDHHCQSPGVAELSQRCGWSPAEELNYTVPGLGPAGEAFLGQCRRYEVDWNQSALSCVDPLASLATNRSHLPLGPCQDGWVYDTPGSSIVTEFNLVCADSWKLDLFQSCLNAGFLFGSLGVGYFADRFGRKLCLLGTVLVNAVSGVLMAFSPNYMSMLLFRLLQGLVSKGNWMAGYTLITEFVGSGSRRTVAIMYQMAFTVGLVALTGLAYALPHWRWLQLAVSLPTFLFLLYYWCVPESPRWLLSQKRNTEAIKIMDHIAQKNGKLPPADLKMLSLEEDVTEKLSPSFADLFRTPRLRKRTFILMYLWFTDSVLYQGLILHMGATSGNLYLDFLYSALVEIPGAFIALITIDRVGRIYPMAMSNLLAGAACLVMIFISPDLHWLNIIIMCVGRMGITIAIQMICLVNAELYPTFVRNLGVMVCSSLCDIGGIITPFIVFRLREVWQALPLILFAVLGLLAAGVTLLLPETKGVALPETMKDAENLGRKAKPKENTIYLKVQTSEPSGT", "assay": "Inhibition of uptake (SLC) transporters", "type": "in vitro ADME", "details": "OCT1; HEK293 cells, probe [14C]-tetraethylammonium bromide (5 μM), 0.3-600 μM tested"}, "[1]": {"assay": "Cytotoxicity by lactate dehydrogenase (LDH) release", "type": "cell-based", "details": "dog, MDCKII control cells, read-out: percent cytotoxicity (LDH release)"}, "[2]": {"assay": "Rat 7-day repeat dose PO study (toxicokinetics, MTD)", "type": "in vivo", "details": "2000 mg/kg", "from_the_text": "The vehicle was 0.5% HPMC.\nToxicokinetic (TK) results were as follows:"}, "[3]": {"assay": "Rat brain distribution and pharmacokinetic study", "type": "in vivo", "from_the_text": "A rat brain distribution study performed in order to determine standard pharmacokinetic parameters and to assess the brain penetration properties of Compound 1 administered orally and intravenously."}, "[4]": {"assay": "Cytotoxicity by lactate dehydrogenase (LDH) release", "type": "cell-based", "details": "human, HEK293 cells; read-out: percent cytotoxicity (LDH release)"}, "[5]": {"assay": "Red Blood Cell (RBC) partitioning", "type": "in vitro ADME", "details": "60 min post-exposure", "from_the_text": "The compound distributed readily in tissues with a steady-state volume of distribution of 1.7 L/kg."}, "[6]": {"assay": "Dose formulation stability (HPLC/UV)", "type": "physicochemical", "description": "Dose formulation analysis for all good laboratory practice (GLP) general toxicology studies was performed using a validated high-performance liquid chromatography (HPLC)/ultraviolet (UV) analytical method (2750-001-001 Dose Formulation Method 1). The vehicle used in the in vivo toxicology studies was 0.5% HPMC). The analytical method utilized HPLC with monitoring at 227 nm with an isocratic mobile phase of methanol with the column temperature set to 25° C. Linearity over a range of 1.0 to 200 mg/mL was observed. Dose formulations over this range were stable at room temperature for up to 13 days and were stable when stored frozen at −20° C. for up to 85 days.\nIn addition, formulation analysis for in vitro genetic toxicology studies was performed using a validated HPLC/UV analytical method (2750-001-001 Dose Formulation Method No. 2) with linearity over a range of 0.001 to 50 mg/mL. Dose formulations for in vitro assays were stable at room temperature for up to 1 day and when stored frozen at −20° C. for up to 45 days."}, "[7]": {"system": "rat hind paw incision model", "assay": "Brennan incisional pain model, prophylactic paradigm", "type": "in vivo", "from_the_text": "Two incisional pain models were used to assess Compound 1 effects on hyperalgesia. The first model is referred to as the Brennan model in which, under anesthesia, a 1 cm longitudinal incision to the skin and underlying fascia of a rat hindpaw is made. The second is a variation but is a more invasive procedure in which the skin and muscle are spread apart using forceps which creates a longer-lasting hypersensitivity.\nUsing the Brennan protocol and a prophylactic paradigm, Compound 1 (3 doses given PO) or vehicle was administered 15 min prior to incision. At the 24-, 48-, and 72-h time points post-incision, mechanical thresholds were obtained (manual von Frey filament, using up/down method).\nIn a subsequent experiment, the same paradigm was used with Compound 1 administered at a dose of 30 mg/kg PO along with positive control group consisting of celecoxib (30 mg/kg PO), morphine (10 mg/kg SC), and vehicle."}, "[8]": {"assay": "Gravimetric Vapor Sorption (GVS)", "type": "physicochemical", "from_the_text": "The sample is hygroscopic."}, "BCRP": {"target": "BCRP (Homo sapiens, UniProt Q9UNQ0)", "sequence (Q9UNQ0 whole entry)": "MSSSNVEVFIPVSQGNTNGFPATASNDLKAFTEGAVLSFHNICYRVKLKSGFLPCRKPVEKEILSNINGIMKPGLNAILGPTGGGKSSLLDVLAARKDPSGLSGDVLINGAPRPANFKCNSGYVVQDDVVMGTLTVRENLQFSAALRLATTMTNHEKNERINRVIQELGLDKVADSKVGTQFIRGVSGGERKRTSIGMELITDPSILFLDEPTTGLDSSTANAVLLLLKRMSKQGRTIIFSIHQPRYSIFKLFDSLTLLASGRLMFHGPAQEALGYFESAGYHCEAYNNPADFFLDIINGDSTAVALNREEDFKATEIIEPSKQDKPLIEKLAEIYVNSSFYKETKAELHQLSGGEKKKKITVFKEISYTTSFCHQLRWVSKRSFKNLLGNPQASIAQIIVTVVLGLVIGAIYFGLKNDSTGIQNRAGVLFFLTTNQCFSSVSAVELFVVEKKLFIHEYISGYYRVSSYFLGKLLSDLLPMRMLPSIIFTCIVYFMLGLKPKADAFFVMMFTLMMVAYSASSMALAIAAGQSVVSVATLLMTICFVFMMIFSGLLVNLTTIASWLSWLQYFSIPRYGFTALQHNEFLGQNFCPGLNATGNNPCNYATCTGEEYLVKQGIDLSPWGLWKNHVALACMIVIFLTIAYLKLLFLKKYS", "assay": "Inhibition of efflux (ABC) transporters"}, "[9]": {"details": "both, Sprague Dawley (Hsd:SD), rat, in vivo, po"}},
  "note": "“Also recorded” adds a separate entry of the source. Structures can show the parent of a compound that is named as a salt. Where two headings read alike, the source gives them in different places.",
  "data": [
    {"smiles": "CC1(C)SC(Nc2ccccc2O)=N[C@@H]1C(=O)O", "note": "[Compound 1, (R)-2-(2-hydroxyphenylamino)-5,5-dimethyl-4,5-dihydrothiazole-4-carboxylic acid mono-hydrochloride]", "values": [
      {"measurement": "IC50", "setting": "OCT", "result": "> 600", "unit": "µM"},
      {"measurement": "cytotoxicity at 100 µM", "setting": "[1]; 100 μM", "result": 31.3, "unit": "%"},
      {"measurement": "cytotoxicity at 600 µM", "setting": "[1]; 600 μM", "result": 33.6, "unit": "%"},
      {"measurement": "Cmax", "setting": "[2]; both sexes, Sprague Dawley (Hsd:SD), rat, in vivo, po", "result": 121, "unit": "µg/mL"},
      {"measurement": "AUC(0-t)", "setting": "[2]; both sexes, Sprague Dawley (Hsd:SD), rat, in vivo, po, AUC0-24 (mean)", "result": 1370, "unit": "µg·h/mL"},
      {"measurement": "Cmax", "setting": "[2]; both sexes, Sprague Dawley (Hsd:SD), rat, in vivo, po, Seventh Daily Dose, 2000 mg/kg PO, read-out: Cmax (mean)", "result": 119, "unit": "µg/mL"},
      {"measurement": "half-life", "setting": "[2]; both sexes, Sprague Dawley (Hsd:SD), rat, in vivo, po, T1/2 (mean)", "result": 3.9, "unit": "h"},
      {"measurement": "Tmax", "setting": "[2]; both sexes, Sprague Dawley (Hsd:SD), rat, in vivo, po, Tmax (mean)", "result": 2, "unit": "h"},
      {"measurement": "MTD at 7 days", "setting": "[2]; both sexes, Sprague-Dawley (Hsd:SD), rat, in vivo, oral gavage 7 days", "result": 2000, "unit": "mg/kg"},
      {"measurement": "AUC0-24 (mean)", "setting": "[2]; [9]", "result": 1609, "unit": "µg·h/mL"},
      {"measurement": "T1/2 (mean)", "setting": "[2]; [9]", "result": 6.7, "unit": "h"},
      {"measurement": "Tmax (mean)", "setting": "[2]; [9]", "result": 1, "unit": "h"},
      {"measurement": "tolerability", "setting": "[2]; female rats, oral gavage 7 days", "result": "tolerated"},
      {"measurement": "peak plasma concentration", "setting": "[3]; 30 mg/kg oral", "result": 9, "unit": "µg/mL"},
      {"measurement": "time to peak plasma concentration", "setting": "[3]; 30 mg/kg oral", "result": "≤ 1", "unit": "h"},
      {"measurement": "bioavailability", "setting": "[3]; rat, in vivo, 30 mg/kg oral dose", "result": 111, "unit": "%"},
      {"measurement": "half-life", "setting": "[3]; rat, in vivo, 30 mg/kg oral dose, read-out: terminal half-life (converted)", "result": 1.6, "unit": "h"},
      {"measurement": "Kp at 1 h", "setting": "[3]; rat, in vivo, 1 h after IV administration, read-out: brain-to-plasma concentration ratio", "result": 0.02},
      {"measurement": "brain/tissue distribution", "setting": "[3]; rat, in vivo, mono-hydrochloride", "result": "distributes to tissues but not to brain to an appreciable extent; also recorded: peripherally restricted"},
      {"measurement": "cytotoxicity", "setting": "[4]", "result": "< 25", "unit": "%"},
      {"measurement": "KRBC/PL", "setting": "[5]; dog", "result": "< 0.25"},
      {"measurement": "KRBC/PL", "setting": "[5]; human", "result": "< 0.25"},
      {"measurement": "KRBC/PL", "setting": "[5]; monkey", "result": "< 0.25"},
      {"measurement": "KRBC/PL", "setting": "[5]; rat", "result": "< 0.25"},
      {"measurement": "dose formulation stability", "setting": "[6]; 0.5% HPMC, 1.0 to 200 mg/mL, room temperature", "result": "up to 13 days"},
      {"measurement": "dose formulation stability", "setting": "[6]; 0.5% HPMC, 1.0 to 200 mg/mL, stored frozen at −20° C.", "result": "up to 85 days"},
      {"measurement": "dose formulation stability", "setting": "[6]; formulations for in vitro assays, 0.001 to 50 mg/mL, room temperature", "result": "up to 1 day"},
      {"measurement": "dose formulation stability", "setting": "[6]; formulations for in vitro assays, 0.001 to 50 mg/mL, stored frozen at −20° C.", "result": "up to 45 days"},
      {"measurement": "reversal of hyperalgesia", "setting": "[7]; 10 mg/kg PO, mono-hydrochloride", "result": "statistically significant reversal of hyperalgesia; also recorded: statistically significant effect"},
      {"measurement": "efficacy relative to vehicle", "setting": "[7]; 30 mg/kg PO", "result": "full efficacy"},
      {"measurement": "dose dependence of anti-hyperalgesic effect", "setting": "[7]; 3 doses PO, 24, 48, 72 h post-incision, mono-hydrochloride", "result": "reversal of hyperalgesia in a dose-dependent manner"},
      {"measurement": "mechanical withdrawal thresholds", "setting": "[7]; 24-, 48-, 72-h post-incision, Compound 1 30 mg/kg PO, celecoxib 30 mg/kg PO, morphine 10 mg/kg SC", "result": "32 to 35", "unit": "g"},
      {"measurement": "dose required for significance", "setting": "[7]; PO, single dose 15 min prior to incision", "result": 10, "unit": "mg/kg"},
      {"measurement": "duration of prevention of incisional hyperalgesia", "setting": "[7]; single oral dose", "result": "at least 3 days"},
      {"measurement": "duration of effect on development of hyperalgesia", "setting": "[7]; single oral dose, FIG. 10", "result": "prevented the development of hyperalgesia for three days"},
      {"measurement": "effect on development of mechanical hyperalgesia", "setting": "[7]; single pre-surgical dose, 24 h, 48 h, 72 h post dose, FIG. 11", "result": "completely prevented development of mechanical hyperalgesia out through day 3"},
      {"measurement": "hygroscopicity", "setting": "[8]; GVS", "result": "hygroscopic"},
      {"measurement": "GVS uptake", "setting": "[8]; between 0% and 90% RH", "result": 6, "unit": "%"},
      {"measurement": "IC50", "setting": "BCRP", "result": "> 30", "unit": "µM"},
      {"measurement": "transporter inhibition", "setting": "BCRP; BCRP", "result": "modestly inhibits"}
    ]}
  ]
}
